Assay results published in PMC2917201 (Molecular cell, 2010).

Target: T1, MuSK(cyto) (Rattus norvegicus, UniProt Q62838)
T1 sequence (Q62838 529-868): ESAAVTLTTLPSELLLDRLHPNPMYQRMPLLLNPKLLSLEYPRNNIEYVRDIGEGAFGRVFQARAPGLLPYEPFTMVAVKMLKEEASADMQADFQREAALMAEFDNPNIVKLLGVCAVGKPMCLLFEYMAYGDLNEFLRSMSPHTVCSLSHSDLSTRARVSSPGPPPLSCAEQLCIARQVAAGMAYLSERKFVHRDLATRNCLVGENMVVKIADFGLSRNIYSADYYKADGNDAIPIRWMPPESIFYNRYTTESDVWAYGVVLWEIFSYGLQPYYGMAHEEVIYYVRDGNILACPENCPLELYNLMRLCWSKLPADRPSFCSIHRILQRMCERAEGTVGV
Test: autophosphorylation, anti-pTyr754 immunoblot
Assay type: biochemical
Details: 5 mM ATP, 50 mM MgCl2, 25 mM Tris-HCl pH 7.5, 0.5 mM sodium vanadate, 10 mM TCEP, room temperature; MuSK alone, no Dok7

## Nc1ncnc2c1ncn2[C@@H]1O[C@H](COP(=O)(O)OP(=O)(O)OP(=O)(O)O)[C@@H](O)[C@H]1O [ATP]
  autophosphorylation, anti-pTyr754 immunoblot: With MuSK alone, incubation with Mg-ATP results in a relatively slow rate of autophosphorylation
